{"source": "the NIST ThermoML archive (doi:10.1021/acs.jced.5b00552)", "assay": "xn = mol fraction of the nth substance listed", "conditions": "100 kPa, Liquid, Vibrating tube method", "note": "Numbers after ± are expanded uncertainties.", "data": [{"smiles": "Cc1ncc(CO)c(CO)c1O.Cl", "note": "[5-hydroxy-6-methyl-3,4-pyridinedimethanol hydrochloride] + O", "values": [{"measurement": "mass density", "setting": "293.15 K, x1 = 0.01626", "value": "1093.5 ± 6.3", "unit": "kg/m3"}, {"measurement": "mass density", "setting": "298.15 K, x1 = 0.01886", "value": "1104.7 ± 6.4", "unit": "kg/m3"}, {"measurement": "mass density", "setting": "303.15 K, x1 = 0.02222", "value": "1111 ± 6.5", "unit": "kg/m3"}, {"measurement": "mass density", "setting": "308.15 K, x1 = 0.02522", "value": "1120.8 ± 6.6", "unit": "kg/m3"}, {"measurement": "mass density", "setting": "313.15 K, x1 = 0.02666", "value": "1133.3 ± 7", "unit": "kg/m3"}, {"measurement": "mass density", "setting": "318.15 K, x1 = 0.02818", "value": "1141.5 ± 6.8", "unit": "kg/m3"}, {"measurement": "mass density", "setting": "323.15 K, x1 = 0.0329", "value": "1154.6 ± 7.1", "unit": "kg/m3"}]}]}
